ChEMBL document CHEMBL4665629, “An optimised series of substituted N-phenylpyrrolamides as DNA gyrase B inhibitors” (Eur J Med Chem, 2019)
Converted amounts (≈) assume the structure as drawn.

Assays:
[1] = Cytotoxicity against HUVEC assessed as reduction in cell proliferation at 50 uM after 72 hrs by MTS assay relative to control; format: cell-based; conditions: human, HUVEC cells, read-out: Activity
[2] = Cytotoxicity against human HepG2 cells assessed as reduction in cell proliferation at 50 uM after 72 hrs by MTS assay relative to control; format: cell-based; conditions: read-out: Activity
Escherichia coli [3] = test: Antibacterial activity against efflux pump d effect ive Escherichia coli JW5503 harbouring tolC mutant assessed as bacterial growth inhibition at 50 uM incubated for 24 hrs by CLSI protocol based broth microdilution assay relative to control; format: functional
Escherichia coli [4] = test: Antibacterial activity against outer membrane impaired Escherichia coli JD17464 harboring lpxC mutant assessed as bacterial growth inhibition at 50 uM incubated for 24 hrs by CLSI protocol based broth microdilution assay relative to control; format: functional
Pseudomonas aeruginosa = test: Antibacterial activity against Pseudomonas aeruginosa ATCC 27853 assessed as bacterial growth inhibition at 50 uM incubated for 24 hrs by CLSI protocol based broth microdilution assay relative to control; format: functional
Staphylococcus aureus = test: Antibacterial activity against Staphylococcus aureus ATCC 29213 assessed as bacterial growth inhibition at 50 uM incubated for 24 hrs by CLSI protocol based broth microdilution assay relative to control; format: functional
Klebsiella pneumoniae = test: Antibacterial activity against Klebsiella pneumoniae ATCC 700603 assessed as bacterial growth inhibition at 50 uM incubated for 24 hrs by CLSI protocol based broth microdilution assay relative to control; format: functional
Escherichia coli [5] = test: Antibacterial activity against Escherichia coli ATCC 25922 assessed as bacterial growth inhibition at 50 uM incubated for 24 hrs by CLSI protocol based broth microdilution assay relative to control; format: functional
Enterococcus faecium [6] = test: Antibacterial activity against Enterococcus faecium ATCC 35667 assessed as bacterial growth inhibition at 50 uM incubated for 24 hrs by CLSI protocol based broth microdilution assay relative to control; format: functional
Enterococcus faecalis [7] = test: Antibacterial activity against Enterococcus faecalis ATCC 29212 assessed as bacterial growth inhibition at 50 uM incubated for 24 hrs by CLSI protocol based broth microdilution assay relative to control; format: functional
Klebsiella aerogenes = test: Antibacterial activity against Enterobacter aerogenes ATCC 13408 assessed as bacterial growth inhibition at 50 uM incubated for 24 hrs by CLSI protocol based broth microdilution assay relative to control; format: functional
Acinetobacter baumannii = test: Antibacterial activity against Acinetobacter baumannii ATCC 19606 assessed as bacterial growth inhibition at 50 uM incubated for 24 hrs by CLSI protocol based broth microdilution assay relative to control; format: functional; conditions: ATCC 19606 = CIP 70.34 = JCM 6841
Enterococcus faecium [8] = test: Antibacterial activity against Enterococcus faecium ATCC 35667 assessed as minimum inhibitory concentration required for >=90% inhibition of bacterial growth by CLSI protocol based broth microdilution assay; format: functional
Enterococcus faecalis [9] = test: Antibacterial activity against Enterococcus faecalis ATCC 29212 assessed as minimum inhibitory concentration required for >=90% inhibition of bacterial growth by CLSI protocol based broth microdilution assay; format: functional
[10] = molecular target: Topoisomerase IV (Staphylococcus aureus) (UniProt P0C1U9+P0C1S7); test: Inhibition of Staphylococcus aureus DNA topoisomerase 4 assessed as residual activity at 1 uM using biotinylated oligonucleotide as substrate incubated for 30 mins in presence of ATP by fluorescence-based microplate reader assay relative to control; format: protein-complex assay
[11] = Inhibition of Escherichia coli DNA topoisomerase 4 assessed as residual activity at 1 uM using biotinylated oligonucleotide as substrate incubated for 30 mins in presence of ATP by fluorescence-based microplate reader assay relative to control
[12] = molecular target: DNA gyrase (Staphylococcus aureus) (UniProt P0A0K8+P20831); test: Inhibition of Staphylococcus aureus DNA gyrase assessed as residual activity at 1 uM using biotinylated oligonucleotide as substrate incubated for 30 mins in presence of ATP by fluorescence-based microplate reader assay relative to control; format: protein-complex assay
Chain of DNA gyrase (Staphylococcus aureus) (P0A0K8 2-644 limits assumed): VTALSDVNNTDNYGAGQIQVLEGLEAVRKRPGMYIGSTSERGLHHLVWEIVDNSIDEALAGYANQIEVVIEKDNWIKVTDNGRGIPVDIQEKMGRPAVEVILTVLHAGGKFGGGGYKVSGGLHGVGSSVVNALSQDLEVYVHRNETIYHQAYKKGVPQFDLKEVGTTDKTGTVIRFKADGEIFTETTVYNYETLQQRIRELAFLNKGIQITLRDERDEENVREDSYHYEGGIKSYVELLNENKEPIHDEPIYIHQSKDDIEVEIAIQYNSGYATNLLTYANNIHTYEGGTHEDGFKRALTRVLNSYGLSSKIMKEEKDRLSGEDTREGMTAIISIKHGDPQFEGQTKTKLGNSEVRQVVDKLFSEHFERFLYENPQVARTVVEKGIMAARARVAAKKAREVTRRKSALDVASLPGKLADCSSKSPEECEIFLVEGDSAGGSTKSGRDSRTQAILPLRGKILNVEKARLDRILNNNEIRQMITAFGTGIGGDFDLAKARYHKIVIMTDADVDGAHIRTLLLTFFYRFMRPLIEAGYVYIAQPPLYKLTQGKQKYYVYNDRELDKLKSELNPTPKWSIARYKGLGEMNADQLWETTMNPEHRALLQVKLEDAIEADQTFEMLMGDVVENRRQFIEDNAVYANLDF
Chain of DNA gyrase (Staphylococcus aureus) (P20831 whole entry partner): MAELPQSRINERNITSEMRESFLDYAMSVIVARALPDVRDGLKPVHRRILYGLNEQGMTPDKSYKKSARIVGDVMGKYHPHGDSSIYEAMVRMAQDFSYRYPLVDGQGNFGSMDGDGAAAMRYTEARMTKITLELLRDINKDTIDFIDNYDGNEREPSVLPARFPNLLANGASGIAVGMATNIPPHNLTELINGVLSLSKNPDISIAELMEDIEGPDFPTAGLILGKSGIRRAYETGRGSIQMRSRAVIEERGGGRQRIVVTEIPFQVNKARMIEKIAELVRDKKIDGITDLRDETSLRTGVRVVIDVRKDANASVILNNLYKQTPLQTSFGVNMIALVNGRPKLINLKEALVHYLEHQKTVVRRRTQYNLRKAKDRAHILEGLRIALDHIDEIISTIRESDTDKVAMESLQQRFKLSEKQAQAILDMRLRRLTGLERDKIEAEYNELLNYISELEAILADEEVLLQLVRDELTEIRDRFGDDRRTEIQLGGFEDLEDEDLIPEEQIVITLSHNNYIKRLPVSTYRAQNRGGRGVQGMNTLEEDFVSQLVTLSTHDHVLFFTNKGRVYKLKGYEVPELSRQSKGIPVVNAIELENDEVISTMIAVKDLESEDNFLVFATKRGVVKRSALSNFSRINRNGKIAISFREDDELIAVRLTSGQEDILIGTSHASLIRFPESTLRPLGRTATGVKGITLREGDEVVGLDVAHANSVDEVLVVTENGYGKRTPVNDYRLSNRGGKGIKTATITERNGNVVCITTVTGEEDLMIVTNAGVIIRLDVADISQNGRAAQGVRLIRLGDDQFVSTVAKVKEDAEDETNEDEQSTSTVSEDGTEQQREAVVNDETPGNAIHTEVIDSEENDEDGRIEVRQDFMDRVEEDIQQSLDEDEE

DNA gyrase [13] = molecular target: DNA gyrase (Escherichia coli, UniProt P0AES4+P0AES6); test: Inhibition of Escherichia coli DNA gyrase using biotinylated oligonucleotide as substrate incubated for 30 mins in presence of ATP by fluorescence-based microplate reader assay; format: protein-complex assay
Topoisomerase IV = Topoisomerase IV (Staphylococcus aureus, UniProt P0C1S7+P0C1U9); test: Inhibition of Staphylococcus aureus DNA topoisomerase 4 using biotinylated oligonucleotide as substrate incubated for 30 mins in presence of ATP by fluorescence-based microplate reader assay; format: protein-complex assay
Chain of Topoisomerase IV (P0C1U9 whole entry): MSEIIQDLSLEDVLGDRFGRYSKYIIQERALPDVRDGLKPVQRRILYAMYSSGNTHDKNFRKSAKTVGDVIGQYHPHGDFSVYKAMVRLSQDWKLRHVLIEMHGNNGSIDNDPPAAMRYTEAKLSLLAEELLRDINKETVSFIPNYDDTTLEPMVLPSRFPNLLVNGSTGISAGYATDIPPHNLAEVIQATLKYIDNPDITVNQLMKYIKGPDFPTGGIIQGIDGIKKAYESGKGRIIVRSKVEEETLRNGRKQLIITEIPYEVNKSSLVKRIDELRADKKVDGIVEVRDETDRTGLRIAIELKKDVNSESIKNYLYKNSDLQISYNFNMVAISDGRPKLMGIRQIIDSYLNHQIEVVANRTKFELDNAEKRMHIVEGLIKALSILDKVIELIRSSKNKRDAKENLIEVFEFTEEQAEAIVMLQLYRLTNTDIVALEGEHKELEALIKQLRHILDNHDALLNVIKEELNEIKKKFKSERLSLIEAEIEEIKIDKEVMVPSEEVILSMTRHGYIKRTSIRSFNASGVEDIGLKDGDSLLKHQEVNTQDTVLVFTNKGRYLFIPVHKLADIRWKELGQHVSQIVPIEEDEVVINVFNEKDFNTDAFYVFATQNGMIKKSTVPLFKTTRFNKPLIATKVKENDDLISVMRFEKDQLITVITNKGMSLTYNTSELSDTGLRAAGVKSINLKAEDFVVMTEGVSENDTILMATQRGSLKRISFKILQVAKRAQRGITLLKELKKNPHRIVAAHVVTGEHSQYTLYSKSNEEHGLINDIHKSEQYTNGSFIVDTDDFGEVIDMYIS
Chain of Topoisomerase IV (P0C1S7 whole entry): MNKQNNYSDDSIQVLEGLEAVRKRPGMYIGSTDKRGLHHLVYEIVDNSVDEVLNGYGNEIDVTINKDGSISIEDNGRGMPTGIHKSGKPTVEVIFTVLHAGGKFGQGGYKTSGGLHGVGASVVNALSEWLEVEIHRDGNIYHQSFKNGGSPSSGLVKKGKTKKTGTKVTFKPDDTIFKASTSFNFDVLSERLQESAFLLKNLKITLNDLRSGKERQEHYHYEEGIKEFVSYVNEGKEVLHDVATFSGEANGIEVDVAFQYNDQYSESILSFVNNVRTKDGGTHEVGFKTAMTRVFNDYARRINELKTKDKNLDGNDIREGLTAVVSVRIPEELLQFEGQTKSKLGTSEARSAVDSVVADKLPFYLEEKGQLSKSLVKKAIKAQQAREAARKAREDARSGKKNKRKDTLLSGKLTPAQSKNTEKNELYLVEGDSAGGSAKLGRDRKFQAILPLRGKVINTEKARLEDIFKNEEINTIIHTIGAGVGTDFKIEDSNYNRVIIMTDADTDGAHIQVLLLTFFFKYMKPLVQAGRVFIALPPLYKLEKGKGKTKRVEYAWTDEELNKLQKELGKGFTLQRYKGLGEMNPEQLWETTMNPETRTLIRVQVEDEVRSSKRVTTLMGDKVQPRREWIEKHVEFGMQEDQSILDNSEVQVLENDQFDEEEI

[14] = Inhibition of Escherichia coli DNA topoisomerase 4 using biotinylated oligonucleotide as substrate incubated for 30 mins in presence of ATP by fluorescence-based microplate reader assay
DNA gyrase [15] = molecular target: DNA gyrase (Staphylococcus aureus, UniProt P0A0K8+P20831); test: Inhibition of Staphylococcus aureus DNA gyrase using biotinylated oligonucleotide as substrate incubated for 30 mins in presence of ATP by fluorescence-based microplate reader assay; format: protein-complex assay
Chain of DNA gyrase (Staphylococcus aureus, UniProt P0A0K8+P20831) (P0A0K8 whole entry): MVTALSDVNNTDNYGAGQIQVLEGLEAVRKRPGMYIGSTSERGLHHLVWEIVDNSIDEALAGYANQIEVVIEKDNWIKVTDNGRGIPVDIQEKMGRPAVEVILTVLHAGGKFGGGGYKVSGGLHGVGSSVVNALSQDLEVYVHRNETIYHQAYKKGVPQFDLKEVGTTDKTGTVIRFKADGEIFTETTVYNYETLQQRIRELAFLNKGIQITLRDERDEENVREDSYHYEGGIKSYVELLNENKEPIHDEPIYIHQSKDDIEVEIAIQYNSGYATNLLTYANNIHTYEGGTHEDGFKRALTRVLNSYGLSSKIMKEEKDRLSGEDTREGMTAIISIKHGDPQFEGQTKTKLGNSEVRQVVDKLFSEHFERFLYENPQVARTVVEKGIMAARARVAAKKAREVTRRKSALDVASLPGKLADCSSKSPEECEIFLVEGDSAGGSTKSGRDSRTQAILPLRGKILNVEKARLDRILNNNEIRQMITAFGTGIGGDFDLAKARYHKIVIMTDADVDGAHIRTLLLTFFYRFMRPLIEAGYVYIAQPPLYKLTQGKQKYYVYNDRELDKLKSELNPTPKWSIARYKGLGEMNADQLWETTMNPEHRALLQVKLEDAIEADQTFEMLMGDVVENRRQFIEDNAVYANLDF
Chain of DNA gyrase (Staphylococcus aureus, UniProt P0A0K8+P20831) (P20831 whole entry): as the sequence (P20831 whole entry partner) above

Escherichia coli [16] = test: Antibacterial activity against efflux pump d effect ive Escherichia coli JW5503 harbouring tolC mutant assessed as minimum inhibitory concentration required for >=90% inhibition of bacterial growth by CLSI protocol based broth microdilution assay; format: functional
[17] = molecular target: DNA gyrase (Escherichia coli) (UniProt P0AES6+P0AES4); test: Inhibition of Escherichia coli DNA gyrase assessed as residual activity at 1 uM using biotinylated oligonucleotide as substrate incubated for 30 mins in presence of ATP by fluorescence-based microplate reader assay relative to control; format: protein-complex assay

| Structure (SMILES) | inhibition at 50 µM (Escherichia coli [3]) [%] | inhibition at 50 µM (Escherichia coli [4]) [%] | inhibition at 50 µM (Pseudomonas aeruginosa) [%] | inhibition at 50 µM (Staphylococcus aureus) [%] | inhibition at 50 µM (Klebsiella pneumoniae) [%] | inhibition at 50 µM (Escherichia coli [5]) [%] | inhibition at 50 µM (Enterococcus faecium [6]) [%] | inhibition at 50 µM (Klebsiella aerogenes) [%] | inhibition at 50 µM (Acinetobacter baumannii) [%] | IC50 (DNA gyrase [13]) [µM] | IC50 (Topoisomerase IV) [µM] | IC50 [14] [µM] | IC50 (DNA gyrase [15]) [µM] | also measured |
| --- | --- | --- | --- | --- | --- | --- | --- | --- | --- | --- | --- | --- | --- | --- |
| Cc1[nH]c(C(=O)Nc2ccc(C(=O)N[C@H](C)c3n[nH]c(=S)o3)cc2OC(C)C)c(Cl)c1Cl | 40 | 1 | 1 | 7 | 5 | 21 | 79 | 10 | 6 | 0.19 | – | – | – | inhibition at 72 h, 50 µM [1]: 85%; inhibition at 72 h, 50 µM [2]: 80%; inhibition at 50 µM (Enterococcus faecalis [7]): 101%; MIC (Enterococcus faecium [8]): > 125 µM; MIC (Enterococcus faecalis [9]): 6.25 µM (≈ 3.11 µg/mL); Activity [10]: 90%; Activity [11]: 92%; Activity [12]: 59% |
| Cc1[nH]c(C(=O)Nc2ccc(C(=O)NCC(=O)O)cc2OC2CCN(C(=O)OC(C)(C)C)CC2)c(Cl)c1Cl | -5 | -2 | -3 | -10 | -9 | 9 | -1 | -8 | -12 | 0.086 | 7.4 | 10 | 1.01 | – |
| Cc1[nH]c(C(=O)Nc2ccc(C(=O)NCC(=O)O)cc2O[C@H]2CCNC2)c(Cl)c1Cl | -1 | 18 | -28 | -6 | -3 | 11 | 14 | -11 | -1 | 0.031 | 4.3 | 16 | 0.29 | inhibition at 72 h, 50 µM [1]: 130%; inhibition at 72 h, 50 µM [2]: 46% |
| CCOC(=O)c1cn(CC)c2cc(NC(=O)c3[nH]c(C)c(Cl)c3Cl)ccc2c1=O | 11 | -2 | -3 | -3 | 9 | 12 | 37 | 5 | 3 | 0.053 | – | – | – | inhibition at 72 h, 50 µM [1]: 88%; inhibition at 72 h, 50 µM [2]: 90%; inhibition at 50 µM (Enterococcus faecalis [7]): -7% |
| Cc1[nH]c(C(=O)Nc2ccc(C(=O)NCC#N)cc2)c(Cl)c1Cl | 102 | -8 | 30 | 4 | 4 | 0 | -17 | 1 | 0 | 0.41 | – | – | – | inhibition at 50 µM (Enterococcus faecalis [7]): 92%; MIC (Escherichia coli [16]): 12.5 µM (≈ 4.39 µg/mL); MIC (Enterococcus faecalis [9]): 25 µM (≈ 8.78 µg/mL) |
| Cc1[nH]c(C(=O)Nc2ccc(C(=O)N[C@@H](C)C(=O)O)cc2OC2CCN(C(=O)OC(C)(C)C)CC2)c(Cl)c1Cl | 1 | 19 | 19 | -23 | -19 | 2 | 67 | -5 | 0 | 0.08 | 0.83 | – | – | MIC (Enterococcus faecium [8]): > 25 µM; Activity [11]: 88%; Activity [12]: 26% |
| Cc1[nH]c(C(=O)Nc2ccc(C(=O)NCC(=O)O)cc2OC2CCNCC2)c(Cl)c1Cl | 37 | 9 | 15 | 3 | 5 | -2 | -1 | 4 | 1 | 0.017 | 3.7 | 7.2 | 0.96 | – |
| COC(=O)[C@H](C)NC(=O)c1ccc(NC(=O)c2[nH]c(C)c(Cl)c2Cl)c(OC2CCNCC2)c1 | 99 | 24 | -1 | 27 | 0 | 14 | 7 | -4 | 21 | 0.04 | 3.7 | 18 | 1.6 | MIC (Escherichia coli [16]): 6.25 µM (≈ 3.11 µg/mL) |
| COC(=O)[C@H](C)NC(=O)c1ccc(NC(=O)c2[nH]c(C)c(Cl)c2Cl)c(OC2CCN(C(=O)OC(C)(C)C)CC2)c1 | 61 | 43 | 27 | 35 | 3 | 18 | 73 | 14 | 23 | – | – | – | – | MIC (Enterococcus faecium [8]): > 25 µM; Activity [17]: 83% |
| Cc1[nH]c(C(=O)Nc2ccc(C(=O)N[C@@H](C)C(=O)O)cc2OC2CCNCC2)c(Cl)c1Cl | 9 | 12 | 9 | -11 | 5 | 7 | -10 | -2 | 2 | 0.0099 | 0.69 | 9.1 | 0.099 | – |
| COC(=O)[C@@H](C)NC(=O)c1ccc(NC(=O)c2[nH]c(C)c(Cl)c2Cl)c(OC2CCNCC2)c1 | 97 | 21 | 12 | 8 | -7 | 8 | 4 | -2 | 17 | 0.048 | – | – | – | MIC (Escherichia coli [16]): 6.25 µM (≈ 3.11 µg/mL); Activity [10]: 94%; Activity [11]: 89%; Activity [12]: 49% |
| COC(=O)CNC(=O)c1ccc(NC(=O)c2[nH]c(C)c(Cl)c2Cl)c(O[C@H]2CCNC2)c1 | 88 | 26 | 4 | 5 | -5 | 4 | 13 | -3 | 2 | 0.074 | – | – | 0.95 | MIC (Escherichia coli [16]): 25 µM (≈ 11.7 µg/mL); Activity [10]: 94%; Activity [11]: 90% |
| Cc1[nH]c(C(=O)Nc2ccc(C(=O)N[C@H](C)C(=O)NN)cc2OC(C)C)c(Cl)c1Cl | 38 | 31 | -2 | 46 | 14 | 21 | 49 | 16 | 25 | – | – | – | – | inhibition at 50 µM (Enterococcus faecalis [7]): 85%; MIC (Enterococcus faecalis [9]): 12.5 µM (≈ 5.7 µg/mL); Activity [17]: 89% |
| Cc1[nH]c(C(=O)Nc2ccc(C(=O)N[C@H](C)C(=O)O)cc2OC2CCNCC2)c(Cl)c1Cl | 35 | 14 | -3 | -1 | 5 | 1 | 3 | -3 | 5 | 0.0069 | 0.96 | 15 | – | Activity [12]: 31% |
| CC(=O)NC[C@H]1CN(c2ccc(N3CCOCC3)c(F)c2)C(=O)O1 [LINEZOLID] | – | – | – | – | – | – | – | – | – | – | – | – | – | MIC (Enterococcus faecium [8]): 11.9 µM (≈ 4 µg/mL) |
